Reference: ChEMBL document CHEMBL1201862, “PubChem BioAssay data set” (2004)
Activity calls are given as the source filed them.

Experiments:
[1] = viability loss in THP-1 monocytes – THP-1 cells, cytotoxicity control for Vif-APOBEC3G degradation inhibitor project, dose response (AID 1117359); assay type: functional; conditions: THP-1
Vero = assay: viability of Vero cells under compound – cytotoxicity control for flavivirus capping enzyme inhibitors (AID 588742); assay type: functional; conditions: Chlorocebus sabaeus
[2] = HIV-1 Vif–A3G interaction blockers – biochemical, TR-FRET, GST-Vif 1-94, biotin-A3G peptide, dose response retest, primary screen (AID 1117319); assay type: functional;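 further: TR-FRET signal of purified GST-Vif binding a biotinylated A3G peptide; inhibitors lower the FRET signal by blocking Vif and A3G binding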
Cytochrome P450 3A4 = Cytochrome P450 3A4 (Homo sapiens, UniProt P08684); conditions: Potency;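 further: confirmatory qHTS run detecting inhibitors and substrates of CYP3A4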
[3] = molecular target: Protein-tyrosine kinase 2-beta (Homo sapiens, UniProt Q14289);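 further: potency of inhibitors of PYK2 kinase phosphorylation of poly-GT substrate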
Kallikrein-7 = Kallikrein-7 (Homo sapiens, UniProt P49862); assay: Fluorescence Intensity-based biochemical primary high throughput dose response assay to identify activators of kallikrein-7 (K7) zymogen.
[4] = molecular target: T1, RNA-binding protein pos-1 (Caenorhabditis elegans, UniProt G5EF15); assay: disruptors of C. elegans POS-1 RNA interaction – biochemical, fluorescence polarization, dose response (AID 1964);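 further: purified POS-1 fused to maltose binding protein made in E. coli; potency of compounds blocking POS-1 binding to fluorescent RNA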
T1 sequence (G5EF15 whole entry): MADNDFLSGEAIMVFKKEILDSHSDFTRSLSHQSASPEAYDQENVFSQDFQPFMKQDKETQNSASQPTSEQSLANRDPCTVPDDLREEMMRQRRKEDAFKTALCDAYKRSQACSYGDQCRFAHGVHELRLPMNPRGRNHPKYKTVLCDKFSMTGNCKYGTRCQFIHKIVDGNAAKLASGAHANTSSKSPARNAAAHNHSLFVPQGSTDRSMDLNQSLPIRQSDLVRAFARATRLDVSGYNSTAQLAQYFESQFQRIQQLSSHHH

[5] = molecular target: T2, Zinc finger protein mex-5 (Caenorhabditis elegans, UniProt Q9XUB2); assay: potency of MEX-5 RNA-binding blockers – biochemical, C. elegans, fluorescence polarization, dose response (AID 1960)
T2 sequence (Q9XUB2 whole entry): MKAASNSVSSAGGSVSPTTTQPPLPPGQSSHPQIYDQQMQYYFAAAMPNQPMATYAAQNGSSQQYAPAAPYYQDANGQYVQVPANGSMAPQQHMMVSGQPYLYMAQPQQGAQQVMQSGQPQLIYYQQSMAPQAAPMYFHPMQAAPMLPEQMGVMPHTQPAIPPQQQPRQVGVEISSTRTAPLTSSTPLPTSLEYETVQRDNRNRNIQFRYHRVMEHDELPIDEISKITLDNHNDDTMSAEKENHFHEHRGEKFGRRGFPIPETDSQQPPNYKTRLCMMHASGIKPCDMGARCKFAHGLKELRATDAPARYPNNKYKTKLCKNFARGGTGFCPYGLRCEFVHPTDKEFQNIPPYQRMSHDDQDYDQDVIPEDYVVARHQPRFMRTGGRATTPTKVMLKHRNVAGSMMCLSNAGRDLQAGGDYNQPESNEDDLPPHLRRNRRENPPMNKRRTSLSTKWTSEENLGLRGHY

[6] = HEK293 Cytotoxicity Assay Measured in Cell-Based System Using Plate Reader - 7071-01_Inhibitor_Dose_CherryPick_Activity_Set2.; assay type: functional
HEK293 = assay: viability loss in HEK293T cells – cell-based, ATP luminescence, cherry-pick samples, cytotoxicity control, dose response (AID 687005); assay type: functional; conditions: Homo sapiens;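 further: cells exposed to compound for 48 hours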
[7] = Luminescence Cell-Based Dose Confirmation to Identify Activators of 5'UTR Stem-Loop Driven Alpha-Synuclein mRNA Translation in H4 Neuroglioblastoma Cells. [Related pubchem assays: 1829 (Project Summary), 1814 (Primary HTS)]; assay type: functional
[8] = Luminescence Cell-Based Dose Response to Identify Activators of Luciferase Translation or Activity in H4-C Neuroglioblastoma Cells. [Related pubchem assays: 1829 (Project Summary), 1814 (Primary HTS)]; assay type: functional
[9] = Luminescence Cell-Based Dose Response HTS to Identify Activators of Luciferase Translation or Activity in H4 […] Cells. [Related pubchem assays: 1829 (Project Summary), 1814 (Primary HTS)]; assay type: functional
[10] = Luminescence Cell-Based Dose Response to Identify Activators of 5'UTR Stem-Loop Driven Prion Protein mRNA Translation in H4-C Neuroglioblastoma Cells. [Related pubchem assays: 1829 (Project Summary), 1814 (Primary HTS)]; assay type: functional
H4 = assay: Luminescence Cell-Based Dose Response HTS to Identify Activators of 5'UTR Stem-Loop Driven Prion Protein mRNA Translation in H4 Neuroglioblastoma Cells. [Related pubchem assays: 1829 (Project Summary), 1814 (Primary HTS)]; assay type: functional; conditions: Homo sapiens
[11] = Luminescence Cell-Based Dose Confirmation HTS to Identify Activators of 5'UTR Stem-Loop Driven Alpha-Synuclein mRNA Translation in H4 Neuroglioblastoma Cells. [Related pubchem assays: 1829 (Project Summary), 1814 (Primary HTS)]; assay type: functional
[12] = OVCAR8 cell viability loss – plate reader, dry powder samples, PAX8 project, dose response (AID 743197); assay type: functional, cell-based; conditions: OVCAR-8
Paired box protein Pax-8 = Paired box protein Pax-8 (Homo sapiens, UniProt Q06710); assay: PAX8 transcriptional activity inhibition in RMG-I – RMG-I cells, luciferase, cherry-pick, dose response (AID 687027); assay type: functional, cell-based;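 further: luciferase reporter driven by Pax8 target thyroperoxidase promoter measured by SteadyGlo luminescence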
[13] = OVCAR-3 cell viability loss – plate reader, dry powder samples, PAX8 inhibitor project, dose response (AID 743044); assay type: functional, cell-based
[14] = HIV-1 AD8 envelope cell-cell fusion blockers – cherry-pick, dose response (AID 652062); assay type: functional, cell-based;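 further: luciferase signal from cell-cell fusion driven by HIV-1 clade B AD8 Env; potency is for inhibitors of fusion seen as a drop in luminescence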
[15] = blockers of HIV-1 envelope-mediated cell-cell fusion – cherry-pick, dose response (AID 652057); assay type: functional, cell-based

Protein-tyrosine kinase 2-beta, sequence (Q14289 whole entry): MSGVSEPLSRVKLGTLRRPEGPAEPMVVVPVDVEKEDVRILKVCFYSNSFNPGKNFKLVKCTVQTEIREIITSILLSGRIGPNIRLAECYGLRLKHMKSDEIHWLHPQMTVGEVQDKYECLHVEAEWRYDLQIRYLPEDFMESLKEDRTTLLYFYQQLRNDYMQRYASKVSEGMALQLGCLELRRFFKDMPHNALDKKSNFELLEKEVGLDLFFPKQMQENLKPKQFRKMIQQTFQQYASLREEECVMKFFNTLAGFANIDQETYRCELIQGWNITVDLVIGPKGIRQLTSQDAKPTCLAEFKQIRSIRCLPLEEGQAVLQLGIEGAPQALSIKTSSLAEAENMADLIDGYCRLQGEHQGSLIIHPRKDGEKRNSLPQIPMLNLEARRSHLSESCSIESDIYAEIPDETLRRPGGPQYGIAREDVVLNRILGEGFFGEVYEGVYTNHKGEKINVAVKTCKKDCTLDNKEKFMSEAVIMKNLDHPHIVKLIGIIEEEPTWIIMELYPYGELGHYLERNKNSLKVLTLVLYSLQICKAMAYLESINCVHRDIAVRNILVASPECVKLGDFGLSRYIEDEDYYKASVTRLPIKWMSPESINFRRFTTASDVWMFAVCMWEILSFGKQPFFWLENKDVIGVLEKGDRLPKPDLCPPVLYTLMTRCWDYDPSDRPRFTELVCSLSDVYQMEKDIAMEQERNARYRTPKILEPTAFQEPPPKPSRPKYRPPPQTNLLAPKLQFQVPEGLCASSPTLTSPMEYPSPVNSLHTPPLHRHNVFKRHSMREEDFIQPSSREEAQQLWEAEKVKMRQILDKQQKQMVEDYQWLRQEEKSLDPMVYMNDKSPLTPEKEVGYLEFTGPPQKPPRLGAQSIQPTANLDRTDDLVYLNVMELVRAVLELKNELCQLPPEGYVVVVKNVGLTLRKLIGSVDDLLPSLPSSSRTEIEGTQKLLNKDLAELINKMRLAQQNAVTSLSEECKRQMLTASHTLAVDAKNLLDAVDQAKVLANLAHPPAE
Cytochrome P450 3A4, sequence (P08684 whole entry): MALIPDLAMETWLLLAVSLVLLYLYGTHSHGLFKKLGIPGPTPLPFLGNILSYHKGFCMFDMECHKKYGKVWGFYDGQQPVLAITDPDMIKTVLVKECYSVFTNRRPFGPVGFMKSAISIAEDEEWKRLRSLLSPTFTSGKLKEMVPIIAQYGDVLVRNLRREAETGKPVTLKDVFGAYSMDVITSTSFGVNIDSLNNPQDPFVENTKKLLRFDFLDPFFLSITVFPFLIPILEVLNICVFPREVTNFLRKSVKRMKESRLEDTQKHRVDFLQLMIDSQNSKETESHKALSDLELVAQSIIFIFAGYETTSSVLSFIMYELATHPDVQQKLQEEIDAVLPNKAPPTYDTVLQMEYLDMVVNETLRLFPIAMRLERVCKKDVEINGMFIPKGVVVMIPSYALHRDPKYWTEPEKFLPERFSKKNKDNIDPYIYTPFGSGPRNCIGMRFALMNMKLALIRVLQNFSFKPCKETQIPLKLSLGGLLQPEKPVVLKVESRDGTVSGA
Paired box protein Pax-8, sequence (Q06710 whole entry): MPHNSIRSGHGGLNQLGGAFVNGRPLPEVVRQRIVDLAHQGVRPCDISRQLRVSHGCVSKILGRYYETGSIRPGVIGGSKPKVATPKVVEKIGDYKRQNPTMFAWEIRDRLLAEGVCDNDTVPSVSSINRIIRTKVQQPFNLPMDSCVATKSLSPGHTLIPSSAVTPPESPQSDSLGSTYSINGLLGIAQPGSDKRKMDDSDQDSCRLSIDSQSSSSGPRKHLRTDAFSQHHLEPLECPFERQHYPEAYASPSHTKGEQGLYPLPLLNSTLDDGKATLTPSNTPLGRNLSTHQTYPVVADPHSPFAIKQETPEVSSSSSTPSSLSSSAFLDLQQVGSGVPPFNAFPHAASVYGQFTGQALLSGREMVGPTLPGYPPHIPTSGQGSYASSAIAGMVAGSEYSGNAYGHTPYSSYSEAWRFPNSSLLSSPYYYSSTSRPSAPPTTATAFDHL
Kallikrein-7, sequence (P49862 whole entry, the tested form may be a part): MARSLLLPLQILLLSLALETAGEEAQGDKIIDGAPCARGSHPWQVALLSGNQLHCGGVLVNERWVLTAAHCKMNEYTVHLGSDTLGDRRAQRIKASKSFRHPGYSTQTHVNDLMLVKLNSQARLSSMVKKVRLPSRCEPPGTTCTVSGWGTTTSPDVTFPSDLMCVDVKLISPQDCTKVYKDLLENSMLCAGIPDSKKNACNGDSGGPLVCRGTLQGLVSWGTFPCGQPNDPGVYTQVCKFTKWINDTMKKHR

## CNc1sc(C(=O)c2cccs2)c(N)c1-c1nc2ccccc2s1
[1]
  CC50: 19.1 µM (active)
Vero
  CC50: > 40 µM (active)
[2]
  IC50: > 100 µM (active)

## CCN(CC)CCCn1c(-c2ccccc2)nc2c(N(CCOC)CCOC)nc(C)nc21
Cytochrome P450 3A4
  AC50: 20 µM (inconclusive)

## N#CCSc1nc(Nc2ccc3c(c2)OCO3)c2ccccc2n1
[3]
  IC50: > 69.5 µM (not active)

## C=C1C(=O)O[C@@H]2C3OC3(C)CC/C=C(\C)CC[C@@H]12 (stereo partly specified)
Cytochrome P450 3A4
  AC50: 31.6 µM (inconclusive)

## CCN1CCN(Cc2c(O)ccc3c2O/C(=C\c2ccc(C)cc2)C3=O)CC1
Kallikrein-7
  EC50: 23.9 µM (inactive)
[4]
  EC50: 38.9 µM (active)
[5]
  EC50: 111 µM (active)

## C[C@H]1CCCCO[C@H](CN(C)Cc2ccncc2)[C@@H](C)CN([C@@H](C)CO)C(=O)c2cc(NC(=O)CCCN(C)C)ccc2O1
[6]
  AC50: 38.1 µM (active)
HEK293
  AC50: 38.1 µM (active)

## CC1(C)CC(=O)c2cnc(N3CCc4ccccc4C3)nc2C1
[7]
  EC50: 0.283 µM (active)
[8]
  EC50: 0.268 µM (active)
[9]
  EC50: < 0.1 µM (inconclusive)
[10]
  EC50: 0.284 µM (active)

## COCCNC(=O)C[C@@H]1CC[C@H]2[C@@H](COC[C@H](O)CN2Cc2cccc(-c3ccncc3)c2)O1
[6]
  AC50: 32.6 µM (active)
HEK293
  AC50: 32.6 µM (active)

## O=C(/C=C/c1cnc2ccccc2n1)NC12CC3CC(CC(C3)C1)C2
[7]
  EC50: 0.62 µM (active)
[8]
  EC50: 0.32 µM (active)
[9]
  EC50: < 0.1 µM (active)
[10]
  EC50: 0.434 µM (active)
H4
  EC50: 0.921 µM (active)

## CC(C)C1Oc2ccccc2C(=O)N(CC(=O)c2ccc3c(c2)OCCO3)C1=O (stereo unspecified)
[7]
  EC50: 0.425 µM (active)
[8]
  EC50: 0.447 µM (active)
[9]
  EC50: < 0.1 µM (active)
[11]
  EC50: 0.131 µM (active)
[10]
  EC50: 0.33 µM (active)
H4
  EC50: < 0.1 µM (active)

## CCOC(=O)C1=C(c2ccccc2)OC(N)=C(C#N)C1c1cccs1 (stereo unspecified)
[3]
  IC50: > 69.5 µM (not active)

## O=C(C[C@H]1CC[C@@H]2[C@H](COC[C@@H](O)CN2S(=O)(=O)c2cccc(Cl)c2)O1)Nc1ccc(-c2ccccc2)cc1
[12]
  AC50: > 70 µM (inactive)
Paired box protein Pax-8
  AC50: 8.33 µM (active)

## O=C(Nc1ccc(C(F)(F)F)cc1)Nc1ccc2c(c1)[C@@H]1C[C@H](CC(=O)N3CCc4ccccc4C3)O[C@H](CO)[C@@H]1O2
[13]
  AC50: 34.4 µM (active)
[12]
  AC50: 48.6 µM (active)
[14]
  AC50: 18.5 µM (active)
[15]
  AC50: 14.2 µM (active)
Paired box protein Pax-8
  AC50: 9.5 µM (active)
